From patent US20210236494A1, “THERAPEUTIC COMBINATION” (Oncologica UK Ltd., priority 2018, published 2021)

Experiments:
[1] = tested on: SKOV-3, Saos-2, BT-549 and NCI-H322M cells; assay: Apoptosis by morphology and western blot of pro-caspase 3 and 9 cleavage in cancer cells; format: cell-based; conditions: 96 hours post-transfection; cancer cells lacking functional p53
Experimental: On this basis, RNAi was then used to investigate the effects of Cdc7 loss in epithelial and mesenchymal cancer cell lines deficient in functional p53. In this experiment, SKOV-3 ovarian carcinoma cells (HTB-77, ATCC) and Saos-2 osteosarcoma cells (HTB-85, ATCC) in McCoy's 5A medium (26600, Invitrogen) supplemented with 15% FBS, BT-549 mammary ductal carcinoma cells (HTB-122, ATCC) in RPMI-1640 medium (52400, Invitrogen) supplemented with 10% FBS and 10 μg/ml insulin (10516, Sigma); and NCI-H322M bronchioalveolar carcinoma cells (95111734, ECACC) in RPMI-1640 medium were used.
Cells were transfected with siRNA as described in Example 1 and the effects on mRNA expression, western blotting and cell population growth were assessed also as described in Example 1.

IMR90 cells [2] = assay: Cell population growth by phase contrast microscopy; format: cell-based, human; conditions: IMR90, 144 hour time course; plateau 48 to 120 hours post-transfection
Experimental: (§1) Phase contrast microscopy was performed over a period of 144 hours with an inverted Aziover 200m (Carl Zeiss, Welwyn Garden City, Uk) and Axiovision software to assess cell population growth.

HBEpC cells [3] = assay: as above; format: cell-based, human; conditions: 144 hour time course, plateau 48 to 120 hours post-transfection
Experimental: as §1

IMR90 cells [4] = assay: Flow cytometry of DNA content (cell cycle, sub G1); format: cell-based, human
Experimental: (§2) After 24 hours medium was removed and cells were retransfected with control (20 nmol/L), CDC7 (10 nmol/L) plus control (10 nmol/L), or CDC7 (10 nmol/L) plus p53 (9 nmol/L duplex plus 1 nmol/L SMARTpool) siRNA mixtures. Cells were harvested at the indicated time points after the second transfection. Efficient knockdown was assessed by qRT-PCR and/or Western blot.
(§3) To test this hypothesis, HBEpC bronchial epithelial cells and IMR90 mesenchymal fibroblasts were transfected with CDC7-siRNA or control-siRNA 48 hours prior to treatment with 500 nM paclitaxel or DMSO and then cultured for a further 24 hours. Cells were harvested and apoptosis was monitored by phase contrast microscopy, flow cytometry and western blot detection of pro-caspase 3 and 9 cleavage.

HBEpC cells [5] = assay: Flow cytometry of DNA content (cell cycle, sub G1); format: cell-based, human
Experimental: as §2, §3

CDC7 mRNA in HBEpC cells = assay: qRT-PCR of CDC7 mRNA after CDC7-siRNA transfection; format: cell-based, human; conditions: 72 hours post-transfection, 25 nM siRNA
From the text: (§4) Cells were then transfected with CDC7-siRNA to inhibit CDC7 expression. Specifically, CDC7 expression was inhibited with custom double-stranded RNA oligos (5′-[…]-3′ (SEQ ID NO 1) and 5′-[…]-3′ (SEQ ID NO 2) Thermo Scientific), using previously described methods (Tudzarove S. et al 2010 supra.). Non-targeting siRNA was used as a negative control (12935-300, Invitrogen). CDC7 or control siRNA duplexes were transfected using Lipofectamine 2000 (11668019, Invitrogen) according to the manufacturer's recommendations at an optimized concentrations of 10 nM for IMR90 and 25 nM for HBEpC.
(§5) At 72 hours post-transfection, CDC7 mRNA levels were measured using qPCR in order to evaluate the efficiency of transfection with CDC7. In particular, Total RNA was isolated from cells with the PureLink Microto-Midi Total RNA Purification System (Invitrogen) according to the manufacturer's instructions. Total RNA (40 ng) was reverse transcribed, and real-time PCR was performed using a SuperScript III Platinum SYBR Green OneStep qRTPCR kit (Invitrogen) following the manufacturer's instructions. Reactions were carried out in an Eppendorf Mastercycler ep Realplex Real-Time PCR System (Eppendorf, Cambridge, UK), and results were analyzed with Realplex v1.5 software (Eppendorf). […]

CDC7 mRNA in IMR90 cells = assay: qRT-PCR of CDC7 mRNA after CDC7-siRNA transfection; format: cell-based, human; conditions: IMR90, 72 hours post-transfection, 10 nM siRNA
From the text: as §4, §5

[6] = tested on: HBEpC bronchial epithelial primary cells; assay: Western blotting of whole cell extracts; format: cell-based, human
Experimental: (§6) In addition, whole cell extracts (WCE) were prepared by cell lysis in modified RIPA buffer (50 mmol/L Tris-Cl pH 7.4, 300 mmol/L NaCl, 0.1% NP40, 1% Triton X-100, 0.5% sodium deoxycholate, 0.1% SDS, 5 mmol/L EDTA, 1 mmol/L EGTA, 100 mmol/L sodium fluoride and 1 mmol/L sodium orthovanadate) followed by sonication for 10 seconds. These were analysed by Western Blotting, in which fifty micrograms of protein was loaded in each lane, separated by 4-20% SDS-PAGE, and transferred by semidry electroblotting onto Hybond C Extra nitrocellulose membranes (GE Healthcare, Buckinghamshire, UK).
(§7) Primary antibodies used were: caspase 3 (NB500-210, Novus Biologicals); caspase 9 (sc-17784, Santa Cruz Biotechnology); Cdc7 (K0070-3, MBL International); cyclin A (sc-596, Santa Cruz Biotechnology); cyclin E (MS-870-P, NeoMarkers); Mcm2 pS53 (A300-756A, Bethyl Laboratories); PCNA (610665, BD Biosciences); Rb (554136, BD Biosciences); Rb pS807/811 (9308, Cell Signaling Technologies); TBP (A301-229A, Bethyl Laboratories).
(§8) Blocking, antibody incubations (using various antibodies including anti-Cdc7 or anti-Mcm2 pS53 antibodies), and washing steps were performed.
(§9) Cells were harvested and apoptosis was monitored by phase contrast microscopy, flow cytometry and western blot detection of pro-caspase 3 and 9 cleavage.

[7] = tested on: IMR90 mesenchymal diploid fibroblasts; assay: Western blotting of whole cell extracts; format: cell-based, human
Experimental: as §6, §7, §8, §9

IMR90 cells [8] = assay: Apoptosis monitored by phase contrast microscopy; format: cell-based, human; conditions: siRNA (CDC7 or control) 48 hours prior to 500 nM paclitaxel for 24 hours
Experimental: as §3

HBEpC cells [9] = assay: Apoptosis monitored by phase contrast microscopy; format: cell-based, human; conditions: siRNA (CDC7 or control) 48 hours prior to 500 nM paclitaxel for 24 hours
Experimental: as §3

[10] = IMR90, 72 hours post-transfection
[11] = IMR90, siRNA (CDC7 or control) 48 hours prior to 500 nM paclitaxel for 24 hours
[12] = siRNA (CDC7 or control) 48 hours prior to 500 nM paclitaxel for 24 hours

## CDC7-siRNA: custom double-stranded RNA oligos (5′-GCUCAGCAGGAAAGGUGUUUU-3′ SEQ ID NO 1 and 5′-AACACCUUUCCUGCUGAGCUU-3′ SEQ ID NO 2) inhibiting CDC7 expression (RNA, backbone not given here)
[1]
  apoptosis (morphology, cleavage of pro-caspases 3 and 9 in WCE): Induction of apoptosis
IMR90 cells [2]
  cell proliferation (cell numbers): cessation of cell proliferation
HBEpC cells [3]
  cell proliferation (cell numbers): cessation of cell proliferation
IMR90 cells [4]; [10]
  cell cycle distribution: accumulation consistent with a G1 arrest
IMR90 cells [4]; IMR90, Cdc7-depleted alone
  cells with less than 2C (sub G1) DNA content: not detected
HBEpC cells [5]; 72 hours post-transfection
  cell cycle distribution: accumulation consistent with a G1 arrest
HBEpC cells [5]; Cdc7-depleted alone
  cells with less than 2C (sub G1) DNA content: not detected
CDC7 mRNA in HBEpC cells
  CDC7 mRNA levels reduced relative to control siRNA transfected (CO) cells: 89%
CDC7 mRNA in IMR90 cells
  CDC7 mRNA levels reduced relative to control siRNA transfected (CO) cells: 87%
[6]; 72 hours post-transfection
  CDC7 protein levels: undetectable
  Mcm2 phosphorylation at Ser-53: abolished
[7]; [10]
  CDC7 protein levels: undetectable
  Mcm2 phosphorylation at Ser-53: abolished

## CC(=O)O[C@H]1C(=O)[C@@]2(C)[C@H]([C@H](OC(=O)c3ccccc3)[C@]3(O)C[C@H](OC(=O)[C@H](O)[C@@H](NC(=O)c4ccccc4)c4ccccc4)C(C)=C1C3(C)C)[C@]1(OC(C)=O)CO[C@@H]1C[C@@H]2O [paclitaxel]
IMR90 cells [4]; [11]
  percentage of cells with less than 2C (sub G1) DNA content: 35%
HBEpC cells [5]; [12]
  percentage of cells with less than 2C (sub G1) DNA content: 30%
IMR90 cells [8]
  cell morphology (apoptosis): morphological signs of apoptosis
HBEpC cells [9]
  cell morphology (apoptosis): morphological signs of apoptosis
[6]; [12]
  pro-caspase 3 and 9 levels: marked reduction
[7]; [11]
  pro-caspase 3 and 9 levels: marked reduction
